Patent US20220133738A1, “GENOTYPE AND DOSE-DEPENDENT RESPONSE TO AN ASBTI IN PATIENTS WITH BILE SALT EXPORT PUMP DEFICIENCY” (MIRUM PHARMACEUTICALS, INC., priority 2019, published 2022)
Values joined by “and” are separate entries in the source; they are usually repeats but may differ in a detail not shown here. Equal values may be shown once.

How the values were obtained:
[1] = test system: children with progressive familial intrahepatic cholestasis (PFIC); experiment: INDIGO phase 2 open-label efficacy and safety study of maralixibat in children with PFIC; assay type: in vivo, human; conditions: week 48
[2] = test system: children with Alagille syndrome (ALGS); experiment: ICONIC phase 2b randomized placebo-controlled drug-withdrawal study with long-term extension of maralixibat in Alagille syndrome; conditions: for C4, mean: baseline 7.4; for Serum cholesterol, mean: baseline 414.3; for ItchRO(Obs) Weekly Morning Average Score, Average Change from Baseline: week 48
Method: Children aged 1-18 years with a diagnosis of ALGS and evidence of cholestasis were eligible to enroll in the ICONIC clinical study, see Tables 12-14. During a long-term extension, participants with sBA levels above the upper limit of normal and/or an ITCHRO(OBS) score >1.5 were eligible for the 400 μg/kg BID dose (all participants received the 400 μg/kg BID dose). Inclusion criteria for the ICONIC study included having cholestasis, which was defined as at least one of 1) sBA concentration (total sBA) >3× the upper limit of normal, 2) serum conjugated bilirubin concentration >1 mg/dL, 3) fat-soluble vitamin deficiency not otherwise explained, 4) serum gamma-glutamyl transferase concentration >3× the upper limit of normal, and 3) intractable pruritus explainable only by liver disease. Inclusion criteria also included having significant pruritus, which was defined as an average daily score of >2 on the ITCHRO(OBS) scale for 2 consecutive weeks (0=no pruritus; 4=most severe pruritus). Exclusion criteria included having surgically disrupted enterohepatic circulation, a liver transplant, decompensated cirrhosis, or having any liver disease other than ALGS.
sBA responders were defined as those patients achieving ≥50% reduction from baseline in sBA at week 12 or 18. ITCHRO responders were defined as those patients achieving at least a 1-point reduction from Baseline in weekly morning ITCHRO(OBS) score at week 12 or 18.
In the open label extension, the effect of higher doses was explored by increasing dosage to a maximum of 400 μg/kg BID in eligible participants.
Efficacy assessments were based on changes from baseline in sBA concentration, weekly average ITCHRO(OBS) scores (0, none; 4, most severe), CSS score (0, none; 4 most severe), and Clinician Xanthoma Scale score (0, none; 4, disabling). […] During the long-term extension, efficacy assessments were conducted every 12 weeks.
sBA were measured using a fully validated liquid chromatography-electrospray ionization-mass electrospray (LC-ESI-MS) method using stable-isotope dilution analysis to measure serum concentrations of principal bile acids (cholic, chenodeoxycholic, ursodeoxycholic, deoxycholic acid, lithocholic, and their corresponding glycine and taurine conjugates). […] Calibration standards of individual bile acids were in the range of 50-25,000 ng/mL and Quality Control samples were prepared at concentrations of 100, 500, 1000, 2500, and 20000 ng/mL. The intra- and inter-assay imprecision of the method for individual bile acids measured was within the accepted GLP quality assurance guidelines of <15% coefficient of variance for these QC samples. The lower limit of quantification of the assay was set at 100 ng/mL and the imprecision at this concentration was <20%. The limit of detection of the assay was 5 ng/mL. Total sBA is represented by the sum of the individual bile acid species measured.

[3] = Withdrawal - Week 22, maralixibat group
[4] = individual subjects, one line per Subject ID of Table 18
[5] = individual subjects, one line per Subject ID of Table 19
[6] = sBA Normalization (<8.5 μmol/L)

CCCCC1(CCCC)CS(=O)(=O)c2ccc(N(C)C)cc2[C@@H](c2ccc(OCc3ccc(C[N+]45CCN(CC4)CC5)cc3)cc2)[C@H]1O [maralixibat]
ALT, change from baseline to week 48, mean [1]: −12 UI/L
C4, change from baseline to week 48, mean [1]: +6.0 ng/mL
ItchRO(Obs) score, change from baseline to week 48, mean [1]: −1.0
Total bilirubin, change from baseline to week 48, mean [1]: +0.8 mg/dL
sBA, change from baseline to week 48, mean [1]: -32 µmol/L
sBA, pruritus, and growth after the higher daily dose ([2]; 400 μg/kg BID relative to 400 μg/kg QD): further improvements
weight Z-scores ([2]; 400 μg/kg BID versus 400 μg/kg QD, FIGS. 35-36): dose-dependent increase
Height Z-score, increase from baseline ([2]; ICONIC participants, FIGS. 33-34, SE 0.1): 0.5
ItchRO (Obs) responders, Decrease from baseline ≥1 ([2]; Open-label Week 18): 67.7%
ItchRO (Obs) responders, Decrease from baseline ≥1.25 ([2]; Open-label Week 18): 58.1%
ItchRO (Obs) responders, Decrease from baseline ≥1.5 ([2]; Open-label Week 18): 51.6%
ItchRO (Obs) responders, Decrease from baseline ≥1 ([2]; Open-label Week 48): 72.4%
ItchRO (Obs) responders, Decrease from baseline ≥1.25 ([2]; Open-label Week 48): 58.6%
ItchRO (Obs) responders, Decrease from baseline ≥1.5 ([2]; Open-label Week 48): 51.7%
C4, mean ([2]; Week 48, n = 15): 20.4 ng/mL
Serum cholesterol, mean ([2]; Week 48, n = 15): 340.3 mg/dL
C4, mean ([2]; Week 191, n = 15): 30.4 ng/mL
Serum cholesterol, mean ([2]; Week 191, n = 15): 277.5 mg/dL
ItchRO (Obs) responders, Decrease from baseline ≥1 [2, 3]: 53.8%
ItchRO (Obs) responders, Decrease from baseline ≥1.25 [2, 3]: 46.2%
ItchRO (Obs) responders, Decrease from baseline ≥1.5 [2, 3]: 23.1%
study days across participants with minimal or no pruritus (ITCHRO(OBS)≤1) ([2]; after 98 weeks): over 89%
Clinician xanthoma scale scores ([2]; all participants by week 48 (p<0.01)): improved significantly
sBA levels, reduction from baseline ([2]; at 191 weeks, long-term extension): about 57%
ITCHRO(OBS) score, mean change from baseline ([2]; at 191 weeks, SE 0.2): −2.5
CSS score, mean reduction ([2]; at 191 weeks, SE 0.4): 2.4 points
ITCHRO(OBS) final score ([2]; at 193 weeks): about 0.33
ITCHRO(OBS) score, mean reduction ([2]; at 193 weeks): over 2 points
CSS scores, average decrease ([2]; by week 48, all participants): over 1.5 points
Clinician Xanthoma Score, reduction from baseline ([2]; by week 191, SE 0.3): 0.7 points
ITCHRO(OBS) scores, average decrease relative to baseline ([2]; by week 193): over 1.5 points
PedsQL Multidimensional Fatigue Scale scores ([2]; core study and extension (p<0.01)): Improvements
tolerability ([2]; core study and extension, over three years): well tolerated
tolerability ([2]; doses up, treatment duration up to 4 years): generally well tolerated
sBA concentration, decrease ([2]; first 18 weeks, 400 μg/kg QD): 31%
ITCHRO(OBS) scores, mean change from baseline ([2]; first 18 weeks, 400 μg/kg QD, SE 0.2): −1.7
Change in ItchRO from Baseline to Week 48 (ITCHRO(OBS) weekly morning average score) [2, 4]: −0.12 and 0.49 and −0.45 and 1.29 and −3.86 and 0.00 and −2.57 and −0.86 (2×) and −0.71 (2×) and −0.00 (2×) and −0.29 and −0.67 and −0.14 and −0.03 and −3.29 (2×) and −3.43 and −2.50 and −2.71 (2×) and −3.50 and −2.29 and −0.17 and −0.43 and −0.83
Serum Bile Acid, Change from Baseline to Week 48 [2, 4]: −56.4 μmol/L and −166.3 μmol/L and −281.4 μmol/L and 166.4 μmol/L and −121.1 μmol/L and 4.3 μmol/L (2×) and −251.0 μmol/L and 3.3 μmol/L and −27.3 μmol/L and −155.5 μmol/L and −240.2 μmol/L and 9.0 μmol/L and 143.1 μmol/L and −112.2 μmol/L and 16.4 μmol/L and −10.9 μmol/L and −16.9 μmol/L and 54.5 μmol/L and −620.4 μmol/L and −23.9 μmol/L and −377.3 μmol/L and −205.9 μmol/L and −270.4 μmol/L and 25.5 μmol/L and −203.6 μmol/L and −96.4 μmol/L and −33.9 μmol/L
Serum Bile Acid, Week 48 [2, 4]: 22.9 µmol/L and 131.8 µmol/L and 98.5 µmol/L and 578.1 µmol/L and 20.8 µmol/L and 333.0 µmol/L and 119.6 µmol/L and 117.7 µmol/L and 492.6 µmol/L and 427.9 µmol/L and 199.8 µmol/L and 29.2 µmol/L and 891.6 µmol/L and 163.4 µmol/L and 60.2 µmol/L and 12.0 µmol/L and 23.6 µmol/L and 126.1 µmol/L and 37.0 µmol/L and 7.0 µmol/L and 101.9 µmol/L and 293.3 µmol/L and 65.0 µmol/L and 110.9 µmol/L and 35.8 µmol/L and 208.0 µmol/L and 55.8 µmol/L and 15.6 µmol/L
ItchRO(Obs) Weekly Morning Average Score, Change from Baseline to Week 48 [2, 5]: −0.12 and 0.49 and −0.45 and 1.29 and −3.86 and 0.00 and −2.57 and −0.86 (2×) and −0.71 (2×) and −0.00 (2×) and −0.29 and −0.67 and −0.14 and −0.03 and −3.29 (2×) and −3.43 and −2.50 and −2.71 (2×) and −3.50 and −2.29 and −0.17 and −0.43 and −0.83
ItchRO(Obs) Weekly Morning Average Score, Week 48 [2, 5]: 2.71 and 3.20 and 1.83 and 3.71 and 0.14 and 1.86 and 0.71 and 1.14 (2×) and 0.29 (2×) and 2.00 (2×) and 1.71 (2×) and 1.00 and 1.40 and 0.00 (7×) and 1.43 and 1.57 and 3.50 and 2.17
sBA levels, least squares mean difference maralixibat vs placebo ([2]; randomized withdrawal (week 18-22), SE 48.0): −114.0
ITCHRO(OBS), LS mean difference maralixibat vs placebo ([2]; randomized withdrawal, SE 0.3): −1.5
ItchRO(Obs) Weekly Morning Average Score, Week 48 Average Score [2, 6]: 0.00
participants meeting sBA Response Definition, Week 48 (N = 28), % [2, 6]: (3.6%)
ItchRO(Obs) Weekly Morning Average Score, Average Change from Baseline [2, 6]: −3.50
ItchRO(Obs) Weekly Morning Average Score, Week 48 Average Score ([2]; sBA ≥50% Reduction): 1.07
participants meeting sBA Response Definition, Week 48 (N = 28), % ([2]; sBA ≥50% Reduction): (46.4%)
ItchRO(Obs) Weekly Morning Average Score, Average Change from Baseline ([2]; sBA ≥50% Reduction): −1.86
ItchRO(Obs) Weekly Morning Average Score, Week 48 Average Score ([2]; sBA ≥60% Reduction): 0.82
participants meeting sBA Response Definition, Week 48 (N = 28), % ([2]; sBA ≥60% Reduction): (39.3%)
ItchRO(Obs) Weekly Morning Average Score, Average Change from Baseline ([2]; sBA ≥60% Reduction): −2.12
ItchRO(Obs) Weekly Morning Average Score, Week 48 Average Score ([2]; sBA ≥70% Reduction): 0.62
participants meeting sBA Response Definition, Week 48 (N = 28), % ([2]; sBA ≥70% Reduction): (28.6%)
ItchRO(Obs) Weekly Morning Average Score, Average Change from Baseline ([2]; sBA ≥70% Reduction): −2.31
ItchRO(Obs) Weekly Morning Average Score, Week 48 Average Score ([2]; sBA ≥80% Reduction): 0.11
participants meeting sBA Response Definition, Week 48 (N = 28), % ([2]; sBA ≥80% Reduction): (14.3%)
ItchRO(Obs) Weekly Morning Average Score, Average Change from Baseline ([2]; sBA ≥80% Reduction): −2.79
ItchRO(Obs) Weekly Morning Average Score, Week 48 Average Score ([2]; sBA ≥90% Reduction): 0.00
participants meeting sBA Response Definition, Week 48 (N = 28), % ([2]; sBA ≥90% Reduction): (3.6%)
ItchRO(Obs) Weekly Morning Average Score, Average Change from Baseline ([2]; sBA ≥90% Reduction): −2.71
CSS final average score ([2]; week 48, all participants): about 1.5
